Reference: patent US20120165331A1, “Di/tri-aza-spiro-C9-C11alkanes” (priority 2010, published 2012)

Experiments:
human orexin 1 receptor [1] = molecular target: T1, human orexin 1 receptor (Homo sapiens, UniProt O43613); assay: Calcium accumulation in cells (FLIPR), antagonism of orexin A, human orexin 1 receptor; assay type: cell-based; details: for Ki: calcium accumulation, antagonism of orexin A, Cheng-Prusoff corrected, read-out: FLIPR hOx1R Ki; for inhibition at 10 µM: measured at a concentration of 10 μM of compound, read-out: FLIPR hOx1R % inhibition
T1 construct: expressed in transfected cells
T1 sequence (O43613 1-425): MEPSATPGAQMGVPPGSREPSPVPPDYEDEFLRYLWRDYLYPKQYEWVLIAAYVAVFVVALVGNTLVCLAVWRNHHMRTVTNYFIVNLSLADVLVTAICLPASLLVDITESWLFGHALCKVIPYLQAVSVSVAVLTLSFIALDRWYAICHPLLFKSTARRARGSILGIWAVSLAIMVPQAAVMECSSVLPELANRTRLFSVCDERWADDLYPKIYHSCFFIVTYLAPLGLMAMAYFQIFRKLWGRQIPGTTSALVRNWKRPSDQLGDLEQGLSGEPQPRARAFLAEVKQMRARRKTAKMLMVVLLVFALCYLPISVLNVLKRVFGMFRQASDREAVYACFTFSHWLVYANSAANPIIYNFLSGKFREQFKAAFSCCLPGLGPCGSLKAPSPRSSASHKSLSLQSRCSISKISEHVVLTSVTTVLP

human orexin 2 receptor [2] = molecular target: T2, human orexin 2 receptor (Homo sapiens, UniProt O43614); assay: Radioligand binding assay ([3H]-SB649868 competition), human orexin 2 receptor; details: radioligand [3H]-SB649868; read-out: Binding hOx2R Kd
T2 construct: expressed in transfected cells
T2 sequence (O43614 1-444): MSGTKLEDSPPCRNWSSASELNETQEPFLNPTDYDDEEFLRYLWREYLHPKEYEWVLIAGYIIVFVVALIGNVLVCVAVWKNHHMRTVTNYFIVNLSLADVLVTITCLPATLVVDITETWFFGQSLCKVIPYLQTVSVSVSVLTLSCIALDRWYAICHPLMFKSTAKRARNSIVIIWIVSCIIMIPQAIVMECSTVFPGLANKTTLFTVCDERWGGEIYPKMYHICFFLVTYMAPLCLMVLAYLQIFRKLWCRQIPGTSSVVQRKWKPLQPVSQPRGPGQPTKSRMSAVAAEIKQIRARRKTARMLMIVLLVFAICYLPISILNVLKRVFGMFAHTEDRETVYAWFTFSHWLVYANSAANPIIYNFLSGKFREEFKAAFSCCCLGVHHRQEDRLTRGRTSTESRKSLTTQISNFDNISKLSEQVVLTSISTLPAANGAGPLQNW
Method: (§1) Radioligand Binding Assay
(§2) For crude cell membrane preparations, cells (CHO, Chinese hamster ovary or HEK, human embryonic kidney) expressing human orexin 1 or human orexin 2 receptors, were washed with HEPES (10 mM, pH 7.5), scraped off the culture plates with the same buffer, and centrifuged at 4° C. for 5 min at 2500×g. The cell pellet was either stored at −80° C. or used directly. Before the experiments, cell membranes were re-suspended in binding assay buffer (10 mM HEPES, 0.5% (w/v) bovine serum albumin, pH 7.5) by homogenisation with a Polytron homogeniser at 50 Hz for 20 s. Cell membranes were also used as made available by commercial providers.
(§3) Bound radioactivity was measured, and data were analysed with the program XLFIT or Graphpad Prism. Protein concentration was determined according to the Bradford/BioRad Protein Assay Kit.
(§4) In competition experiments, cell homogenates (150 μl) were incubated in assay buffer (10 mM HEPES, pH 7.5, 0.5% (w/v) bovine serum albumin, 5 mM MgCl2, 1 mMCaCl2, and tween 0.05%) for 1 h at room temperature with about 1 nM of the radioligand [^3H]-SB649868, 66 Ci/mmole, 50 μl), and with various concentrations of compounds of the invention (50 μl) in triplicates; non-specific binding was determined in the presence of almorexant (10 μM). Reactions were terminated by vacuum filtration, 3 washes of ice cold wash buffer (Tris-HCl pH 7.4/10 mM, with NaCl 154 mM). Competition data is expressed in Table 1 as Kd [μM].

human orexin 1 receptor [3] = molecular target: T1, human orexin 1 receptor; assay: Radioligand binding assay ([3H]-SB649868 competition), human orexin 1 receptor; details: radioligand [3H]-SB649868; read-out: Binding hOx1R Kd
Method: as §1, §2, §3, §4

human orexin 2 receptor [4] = molecular target: T2, human orexin 2 receptor; assay: Calcium accumulation in cells (FLIPR), antagonism of orexin A, human orexin 2 receptor; assay type: cell-based; details: calcium accumulation, antagonism of orexin A, Cheng-Prusoff corrected; read-out: FLIPR hOx2R Ki

| SMILES | Ki (human orexin 1 receptor [1]) | Kd (human orexin 2 receptor [2]) | Kd (human orexin 1 receptor [3]) | Ki (human orexin 2 receptor [4]) | inhibition at 10 µM (human orexin 1 receptor [1]) |
| --- | --- | --- | --- | --- | --- |
| COc1cccc(-c2ocnc2CN2CCNC3(CCN(c4nc(C)cc(OC)n4)CC3)C2=O)c1 [Example 1.13, 9-(4-Methoxy-6-methylpyrimidin-2-yl)-4-((5-(3-methoxyphenyl)oxazol-4-yl)methyl)-1,4,9-triazaspiro[5.5] undecan-5-one] | 37 nM | 200 nM | 82 nM | 3 nM | – |
| COc1cccc(-c2oc(C)nc2CN2CCNC3(CCN(c4nc(C)cc(C)n4)CC3)C2=O)c1 [Example 1.14, 9-(4,6-Dimethylpyrimidin-2-yl)-4-((5-(3-methoxyphenyl)-2-methyloxazol-4-yl)methyl)-1,4,9-triazaspiro[5.5] undecan-5-one] | 298 nM | 22 nM | 445 nM | 2 nM | – |
| COc1cccc(-c2oc(C)nc2CN2CCNC3(CCN(c4nccc(OC)n4)CC3)C2=O)c1 [Example 1.17, 4-((5-(3-Methoxyphenyl)-2-methyloxazol-4-yl)methyl)-9-(4-methoxypyrimidin-2-yl)-1,4,9-triazaspiro[5.5] undecan-5-one] | 2090 nM | 251 nM | 2350 nM | 92 nM | – |
| COc1cccc(-c2oc(C)nc2CN2CCNC3(CCN(c4nc(C)cc(OC)n4)CC3)C2=O)c1 [Example 1.18, 9-(4-Methoxy-6-methylpyrimidin-2-yl)-4-((5-(3-methoxyphenyl)-2-methyloxazol-4-yl)methyl)-1,4,9-triazaspiro[5.5] undecan-5-one] | 119 nM | 23 nM | 219 nM | 3 nM | – |
| COc1cccc(-c2sc(C)nc2CN2CCNC3(CCN(c4nc(C)cc(C)n4)CC3)C2=O)c1 [Example 1.24, 9-(4,6-Dimethyl-pyrimidin-2-yl)-4-((5-(3-methoxyphenyl)-2-methylthiazol-4-yl)methyl)-1,4,9-triazaspiro[5.5] undecan-5-one] | 766 nM | 35 nM | 924 nM | 10 nM | – |
| COc1cccc(-c2sc(C)nc2CN2CCNC3(CCN(c4nc(C)cc(OC)n4)CC3)C2=O)c1 [Example 1.26, 9-(4-Methoxy-6-methylpyrimidin-2-yl)-4-((5-(3-methoxyphenyl)-2-methylthiazol-4-yl)methyl)-1,4,9-triazaspiro[5.5] undecan-5-one] | 391 nM | 49 nM | 352 nM | 8 nM | – |
| COCc1cccc(-c2ocnc2CN2CCNC3(CCN(c4nc(C)cc(C)n4)CC3)C2=O)c1 [Example 1.27, 9-(4,6-Dimethyl-pyrimidin-2-yl)-4-((5-(3-(methoxymethyl)phenyl)oxazol-4-yl)methyl)-1,4,9-triazaspiro[5.5] undecan-5-one] | – | 140 nM | 5140 nM | 94 nM | 34% |
| COCc1cccc(-c2ocnc2CN2CCNC3(CCN(c4nc(C)cc(OC)n4)CC3)C2=O)c1 [Example 1.29, 9-(4-Methoxy-6-methylpyrimidin-2-yl)-4-((5-(3-(methoxymethyl)phenyl)oxazol-4-yl)methyl)-1,4,9-triazaspiro[5.5] undecan-5-one] | 1430 nM | 100 nM | 1320 nM | 75 nM | – |
| COCc1cccc(-c2oc(C)nc2CN2CCNC3(CCN(c4nc(C)cc(C)n4)CC3)C2=O)c1 [Example 1.30, 9-(4,6-Dimethyl-pyrimidin-2-yl)-4-((5-(3-(methoxymethyl)phenyl)-2-methyl-oxazol-4-yl)methyl)-1,4,9-triazaspiro[5.5] undecan-5-one] | – | 114 nM | 2140 nM | 29 nM | 51% |
| COc1cccc(-c2cn(C)nc2CN2CCNC3(CCN(c4nc(C)cc(C)n4)CC3)C2=O)c1 [Example 1.33, 9-(4,6-Dimethyl-pyrimidin-2-yl)-4-((4-(3-methoxyphenyl)-1-methyl-1H-pyrazol-3-yl)methyl)-1,4,9-triazaspiro[5.5] undecan-5-one] | 1530 nM | 42 nM | 1620 nM | 6 nM | – |
| COc1ccc2[nH]cc(CN3CCNC4(CCN(c5nc(C)cc(C)n5)CC4)C3=O)c2c1 [Example 1.34, 9-(4,6-Dimethyl-pyrimidin-2-yl)-4-((5-methoxy-1H-indol-3-yl)methyl)-1,4,9-triazaspiro[5.5] undecan-5-one] | 494 nM | 4 nM | 234 nM | 1 nM | – |
| COc1cccc(-c2n[nH]nc2CN2CCNC3(CCN(c4nc(C)cc(C)n4)CC3)C2=O)c1 [Example 1.39, 9-(4,6-Dimethyl-pyrimidin-2-yl)-4-((5-(3-methoxy-phenyl)-2H-1,2,3-triazol-4-yl)methyl)-1,4,9-triazaspiro[5.5] undecan-5-one] | 304 nM | 13 nM | 231 nM | 2 nM | – |
| Cc1cc(C#N)nc(N2CCC3(CC2)NCCN(Cc2c[nH]c4ccccc24)C3=O)n1 [Example 1.40, 2-(4-((1H-Indol-3-yl)methyl)-5-oxo-1,4,9-triazaspiro[5.5]undecan-9-yl)-6-methylpyrimidine-4-carbonitrile] | 2810 nM | 79 nM | 5300 nM | 20 nM | – |
| Cc1cc(C)nc(N2CCC3(CC2)NCCN(Cc2nn(C)cc2-c2cccc(C(F)(F)F)c2)C3=O)n1 [Example 1.41, 9-(4,6-Dimethyl-pyrimidin-2-yl)-4-((1-methyl-4-(3-(trifluoromethyl)phenyl)-1H-pyrazol-3-yl)methyl)-1,4,9-triazaspiro[5.5] undecan-5-one] | 1580 nM | 182 nM | 3170 nM | 16 nM | – |
| Cc1cc(C)nc(N2CCC3(CC2)NCCN(Cc2nn(C)cc2-c2cccc(Cl)c2)C3=O)n1 [Example 1.42, 4-((4-(3-Chlorophenyl)-1-methyl-1H-pyrazol-3-yl)methyl)-9-(4,6-dimethyl-pyrimidin-2-yl)-1,4,9-triazaspiro[5.5] undecan-5-one] | 3280 nM | 391 nM | 6490 nM | 83 nM | – |
| Cc1cc(C)nc(N2CCC3(CC2)NCCN(Cc2nn(C)cc2-c2cccc(OC(F)(F)F)c2)C3=O)n1 [Example 1.46, 9-(4,6-Dimethyl-pyrimidin-2-yl)-4-((1-methyl-4-(3-(trifluoro-methoxy)phenyl)-1H-pyrazol-3-yl)methyl)-1,4,9-triazaspiro[5.5] undecan-5-one] | 2040 nM | 91 nM | 3880 nM | 5 nM | – |
| Cc1cc(C)nc(N2CCC3(CC2)NCCN(Cc2nn(C)cc2-c2cccc(OC(C)C)c2)C3=O)n1 [Example 1.47, 9-(4,6-Dimethyl-pyrimidin-2-yl)-4-((4-(3-iso-propoxyphenyl)-1-methyl-1H-pyrazol-3-yl)methyl)-1,4,9-triazaspiro[5.5] undecan-5-one] | 135 nM | 7 nM | 187 nM | 1 nM | – |
| CC(=O)c1cccc(-c2cn(C)nc2CN2CCNC3(CCN(c4nc(C)cc(C)n4)CC3)C2=O)c1 [Example 1.48, 4-((4-(3-Acetylphenyl)-1-methyl-1H-pyrazol-3-yl)methyl)-9-(4,6-dimethyl-pyrimidin-2-yl)-1,4,9-triazaspiro[5.5] undecan-5-one] | 2740 nM | 99 nM | 2270 nM | 12 nM | – |
